Measurements published in publication PMC12197429, “Evaluation of the Antileishmanial Activity of Some Benzimidazole Derivatives Using In Vitro and In Silico Techniques” (Veterinary Sciences, 2025).
In brackets after ≈: the same amount, converted by molar mass. Read-outs that look alike come from different tables or passages of the source.

Key:
[1] = tested on: L. (L.) major promastigotes; assay: In vitro antileishmanial activity (CellTiter-Glo luminescent cell viability); format: cell-based, Leishmania (L.) major; set-up: key to Activity class against promastigotes based on IC50: very active (IC50 < 10 μg/mL); active (IC50 > 10 < 50 μg/mL); moderately active (IC50 > 50 < 100 μg/mL); inactive (IC50 > 100 μg/mL); settings: for IC50: Leishmania major; for Selectivity index (SI): SI = CC50 (L929)/IC50 (L. (L.) major promastigotes)
Description: Protozoan isolates were obtained from the Parasite Bank at the Department of Parasitology, Faculty of Medicine, Manisa Celal Bayar University. The subsequent procedure for acquiring promastigotes was as follows: the major L. (L.) isolate was classified as MHOM/TR/2014/CBL-LM. It was preserved in liquid nitrogen and defrosted by placing it in a water bath at 37 °C for two minutes after its removal from preservation. Subsequent to melting, the NNN medium was inoculated and incubated in an incubator at 25 °C. The reproductive condition of the protozoan was assessed by making coverslips and slides twice daily. Following parasite replication, the cells were transferred from the NNN medium to the RPMI-1640 medium (Gibco, Paisley, Scotland, UK) to facilitate further proliferation. Before application, 10% fetal calf serum, 1% penicillin/streptomycin, and 1% gentamicin were added to a widely available commercial medium. Distribution was conducted using 5 milliliters per 25 mL flask, and cultivation was performed by adding 50 μL of the cultured promastigotes. Flasks designated for cultivation were incubated in a 25 °C incubator. Parasite reproduction was observed, and the medium was supplemented every 2–3 days. Subsequently, the number of promastigotes was quantified using a Thoma chamber, yielding a concentration of 10^6 promastigotes/mL, and a suspension comprising promastigotes was formulated.
The synthesized compounds were dissolved in DMSO to a final concentration of no more than 0.5% [51]. Based on preliminary studies, the K1 compound was prepared at concentrations ranging from 0.23 µg/mL to 30 µg/mL, while the K2, K3, and K4 compounds were prepared at concentrations ranging from 1.95 µg/mL to 250 µg/mL.
The assay was conducted using 96-well flat-bottom microtiter plates, with three replicate wells per experimental group. The groups included a blank control, parasite control (no treatment), drug control (Amphotericin B), and test groups for compounds K1, K2, K3, and K4. Each well was filled with 100 µL of RPMI-1640 medium supplemented with 10% fetal calf serum, 1% penicillin/streptomycin, and 1% gentamicin. For the four test compounds and Amphotericin B, 100 µL of the respective solution was added to the first well of each group. The contents were mixed thoroughly using an automated dispensing pipette, followed by serial dilutions down the respective wells. Promastigote suspensions, previously counted using a Thoma counting chamber, were added at 100 µL per well to all wells except those designated as blanks. No parasites were added to the blank wells. The plates were then covered with lids, sealed with parafilm, and incubated at 25 °C. Following incubation, cell viability was assessed using the CellTiter-Glo® Luminescent Cell Viability Assay Kit (Promega, Madison, WI, USA). This experimental procedure was repeated in three independent experiments conducted at different time points.
It is calculated as the ratio of the cytotoxic concentration (CC50) required to cause 50% cell death in mammalian cells to the inhibitory concentration (IC50) required to kill 50% of the parasites. The selectivity index values of benzimidazole derivatives for L. (L.) major promastigotes were determined using the following equation: SI = CC50/IC50 [55].

[2] = tested on: L. (L.) major promastigotes; assay: Morphological alterations of promastigotes by Giemsa staining; format: cell-based, Leishmania (L.) major; settings: serial dilutions 0.23 µg/mL to 30 µg/mL, 48 h
Description: The morphological alterations caused by compound K1 at various concentrations in L. (L.) major promastigotes were assessed at the 48 h mark utilizing Giemsa staining (Figure 3).
Figure 3 Control (a) and serial dilutions of the K1 compound (ranging from 0.23 µg/mL to 30 µg/mL) (b–l) in wells containing L. (L.) major promastigotes (100× magnification).

L929 cell line = assay: Cytotoxicity test (MTT); format: cell-based, mouse; settings: L929 cells
Description: (§1) The cytotoxic effects of the benzimidazole derivatives and AmpB were determined using the L929 cell line (American Type Culture Collection, Manassas, VA, USA). In total, 100 µL of the cell suspension (10^5/mL) was added to each well comprising sterile, flat-bottomed 96-well microplates. The microplates were then incubated at 37 °C in a 5% CO2 incubator for 24 h. Cytotoxic activity was evaluated using the same concentrations applied in the antileishmanial activity assessment. For compound K1, serial dilutions were prepared in the range of 0.23–30 µg/mL, and for the other compounds, in the range of 1.95–250 µg/mL. These dilutions were added to a second microplate, and 100 µL from each well was transferred to the first plate. The plates were then incubated under the same conditions for an additional 48 h.
(§2) Cell viability was determined using the 3-(4.5-dimethylthiazol-2-yl)-2.5-diphenyltetrazolium bromide) (Sigma, Kawasaki, Japan) method. After the completion of the incubation period, all media from the microplates, both containing and lacking the active ingredient, were discarded. Subsequently, 100 μL of MTT suspension was added to each well, and the plates were incubated in a CO2 incubator at 37 °C for four hours. At the end of the incubation period, all wells in the microplates were emptied, and 100 μL of pure DMSO (to dissolve the formazan crystals) was pipetted into each well and incubated under the same conditions for 30 min. Absorbance was measured at 570 nm using a spectrophotometer (Biotek 800TS, Winooski, VT, USA). CC50 values were determined using GraphPad Prism version 8.4.2. All experiments were performed in triplicate, with three independent trials and two replicates per trial.

Cytotoxicity test (MTT) = format: cell-based, mouse; settings: L929 mouse fibroblast cells, 48 h, MTT
Description: as §1, §2

[3] = L. (L.) major promastigotes (MHOM/TR/2014/CBL-LM), 25 °C, CellTiter-Glo, read-out: IC50 (antileishmanial activity)

SMILES	IC50 [1, 3]	Selectivity index (SI) [1]	Morphological alterations in promastigotes [2]	Cytotoxic effect on L929 cells (L929 cell line)	CC50 at 48 h (Cytotoxicity test (MTT))	IC50 ([1]; L. (L.) major promastigotes, read-out: Activity class against promastigotes based on IC50)	Activity class against promastigotes based on IC50 ([1]; L. (L.) major promastigotes)
CC(=O)c1nc2ccccc2n1CC(=O)c1cccc(Cl)c1 [K1]	0.679 mg/L (≈ 2.17 µM)	368.25	decreases in the number of promastigotes and morphological structural disruptions were observed	not observed	250 mg/L (≈ 799 µM)		
Cc1nc(-c2ccc(Cl)cc2)cn2c1nc1ccccc12 [K4]	69.2 mg/L (≈ 236 µM)	4.22			292 mg/L (≈ 994 µM)	50 to 100 mg/L (≈ 170 to 340 µM)	
Cc1nc(-c2cccc(Cl)c2)cn2c1nc1ccccc12 [K2]	8.89 mg/L (≈ 30.3 µM)	7.08			63 mg/L (≈ 214 µM)		
C[C@@H]1[C@H](O)[C@@H](C)/C=C/C=C/C=C/C=C/C=C/C=C/C=C/[C@H](O[C@@H]2O[C@H](C)[C@@H](O)[C@H](N)[C@@H]2O)C[C@@H]2O[C@](O)(C[C@@H](O)C[C@@H](O)[C@H](O)CC[C@@H](O)C[C@@H](O)CC(=O)O[C@H]1C)C[C@H](O)[C@H]2C(=O)O [AmpB, Amphotericin B, reference compound]	0.274 mg/L (≈ 0.297 µM)						
Cc1nc(-c2ccccc2)cn2c1nc1ccccc12 [K3]	45.1 mg/L (≈ 174 µM)	0.012			0.56 mg/L (≈ 2.16 µM)		active
